Laboratory results reported in patent US4923862A, “Topical preparation containing ofloxacin” (priority 1986, dated 1990).
Read-outs that look alike come from different tables or passages of the source.

Tests used:
[1] = test system: mice; assay: Acute toxicity in mice; conditions: p.o.
[2] = U.S. Pat. No. 4,382,892; Antimicrobial Agent & Chemotherapy, Vol. 29, 163-164 (1986); cited from earlier work
[3] = Stability of S-compound in aqueous solution; type: physicochemical; conditions: 0.5% (wt./vol.) aqueous solution, pH 3 to 10, 2 weeks
[4] = Antimicrobial activity of Ofloxacin and S-compound (general statement); conditions: compared with Ofloxacin

For `CC1COc2c(N3CCN(C)CC3)c(F)cc3c(=O)c(C(=O)O)cn1c23` (racemic) [Ofloxacin, (±)-9-fluoro-3-methyl-10-(4-methyl-1-piperazinyl)-7-oxo-2,3-dihydro-7H-pyrido[1,2,3de][1,4]benzoxazine-6-carboxylic acid], the “LD50 (acute toxicity)” value [1] is listed as 5450 mg/kg and the antimicrobial activities [2] is listed as “excellent antimicrobial agent”.
For `C[C@H]1COc2c(N3CCN(C)CC3)c(F)cc3c(=O)c(C(=O)O)cn1c23` [S-compound, S-(-)-9-fluoro-3-methyl-10-(4-methyl-1-piperazinyl)-7-oxo-2,3-dihydro-7H-pyrido[1,2,3de][1,4]benzoxazine-6-carboxylic acid], the “decomposition (residual amount of S-compound)” value [3] is listed as “no decomposition was observed at all”, the antimicrobial activities [2] is listed as “potential antimicrobial activities” and the antimicrobial activities [4] is listed as “high antimicrobial activities”.
